The values that follow come from patent US10959981B2, “Composition for preventing or treating climacteric symptoms comprising soybean extract comprising coumestrol as an active ingredient” (AMOREPACIFIC CORPORATION, priority 2014, dated 2021).

In one test the test system is procollagen. The test is described as follows: Procollagen expression in UV-irradiated 3D artificial skin. It counts as cell-based. Conditions: 20 mJ UV, 0.1 ppm coumestrol or 100 ppm extract, relative to the non-UV-irradiated group as 100, UV-irradiated group 68.7%. The procedure:
(§1) It is known that the skin in the climacteric period is vulnerable to skin irritation such as UV because of decreased skin thickness. 3D artificial skin was prepared and the effect of the germinated and fermented bean extract on the skin was tested after UV irradiation.
(§2) A matrix was prepared by mixing 2.64×10^5 fibroblasts in a collagen solution. After seeding 5×10^6 keratinocytes thereon, differentiation into artificial skin was induced by treating with 1.2 mM calcium. 2 weeks later, after irradiating 20 mJ UV on the cells and treating with 0.1 ppm coumestrol or 100 ppm germinated and fermented bean extract, the culture medium was recovered and the expression levels of MMP-1 and procollagen were measured in the same manner as in Test Example 5. The result is given in Table 2 relative to the non-UV-irradiated group as 100.

Another test relates to MMP-1. Briefly: MMP-1 expression in UV-irradiated 3D artificial skin. It counts as cell-based. To be noted: 20 mJ UV, 0.1 ppm coumestrol or 100 ppm extract, relative to the non-UV-irradiated group as 100, UV-irradiated group 142.4%. As for the experimental part: as §1, §2
Test [1] has as its system climacteric mouse models induced by oophorectomy. Briefly: Bone density by dual-energy X-ray absorptiometry in oophorectomized mice. It counts as in vivo. To be noted: oophorectomized hairless mice, 30 weeks old; feed for 14 weeks; extract 500 mg/kg, coumestrol 0.5 mg/kg; control group 0.1975, oophorectomy group 0.1821. The procedure:
(§3) Female hairless mice weighing 26-27 g were used as experimental animals. The experimental animals were bred under a condition of 23±1° C., 40-60% humidity and 12-hour light/dark cycles. Basic feed and drinking water were provided ad libitum. On the previous day before blood taking, drinking water was provided only.
Oophorectomy was conducted aseptically after anesthetizing 15-week-old hairless mice and disinfecting with 70% ethanol. After incising skin tissue about 2-3 cm along the spinal cord below one lateral dorsal part, the muscle and peritoneum at the part where an ovary is located were incised by 1.5 cm to expose the ovary. After removing the ovary, the peritoneum, muscle and skin were sutured using silk suture. The ovary at the opposite side was also removed by the same method. For a control group, a sham operation of incising the muscle and peritoneum but suturing without removal of the ovary was conducted. […]
(§4) The experimental animals were divided into the control group (sham operation group) and an oophorectomy group. […] The administration dosage for the coumestrol administration group was determined such that the amount of coumestrol in the germinated and fermented bean was the same as that of the coumestrol 0.5 mg/kg administration group (content of coumestrol in the germinated and fermented bean extract=0.1%; 500 mg/kg×0.1%=0.5 mg/kg). […]

For test [2] the test system is unchanged. The test is described as follows: Skin thickness measured with calipers in oophorectomized mice. It counts as in vivo. To be noted: oophorectomized hairless mice, 30 weeks old; extract 500 mg/kg, coumestrol 0.5 mg/kg in feed for 14 weeks; FIG. 2. As for the experimental part: as §3
Oophorectomy was conducted aseptically after anesthetizing 15-week-old hairless mice and disinfecting with 70% ethanol. After incising skin tissue about 2-3 cm along the spinal cord below one lateral dorsal part, the muscle and peritoneum at the part where an ovary is located were incised by 1.5 cm to expose the ovary. After removing the ovary, the peritoneum, muscle and skin were sutured using silk suture. The ovary at the opposite side was also removed by the same method. […]
as §4
Skin thickness was measured for the same test group (30 weeks old) as that in Test Example 1 using calipers (HEPT, Cjina).

Test [3] has the same test system. The test is described as follows: Body weight change of oophorectomy-induced climacteric mice over 14 weeks. It counts as in vivo. To be noted: oophorectomized hairless mice; feed for 14 weeks; extract 500 mg/kg, coumestrol 0.5 mg/kg; FIG. 1. As for the experimental part:
Female hairless mice weighing 26-27 g were used as experimental animals. The experimental animals were bred under a condition of 23±1° C., 40-60% humidity and 12-hour light/dark cycles. Basic feed and drinking water were provided ad libitum. On the previous day before blood taking, drinking water was provided only. Oophorectomy was conducted aseptically after anesthetizing 15-week-old hairless mice and disinfecting with 70% ethanol. After incising skin tissue about 2-3 cm along the spinal cord below one lateral dorsal part, the muscle and peritoneum at the part where an ovary is located were incised by 1.5 cm to expose the ovary. After removing the ovary, the peritoneum, muscle and skin were sutured using silk suture. The ovary at the opposite side was also removed by the same method. For a control group, a sham operation of incising the muscle and peritoneum but suturing without removal of the ovary was conducted. After the surgical operation, the mice were allowed to recover for a week. […] The administration dosage for the coumestrol administration group was determined such that the amount of coumestrol in the germinated and fermented bean was the same as that of the coumestrol 0.5 mg/kg administration group (content of coumestrol in the germinated and fermented bean extract=0.1%; 500 mg/kg×0.1%=0.5 mg/kg). […]

Take `O=c1oc2cc(O)ccc2c2oc3cc(O)ccc3c12` [coumestrol]: the Procollagen with procollagen worked out at 82.4%. This molecule also registered an MMP-1 in the test on MMP-1 of 122.8%. Further, the Bone density in test [1] is 0.1902 g/cm^2. In addition, in test [2], the skin thickness entry is listed as “the same as that of the oophorectomy group”. The weight gain result in test [3] is recorded as “significantly less than that of the oophorectomy group”.
